Where “and” joins values, the source holds several entries; their conditions need not be identical. Equal values may be shown once.
Assay: Repeated-treatment efficacy for removing an intravenous dose of 238Pu (excretion, tissue retention, clinical observations), female and male arms;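 on % Recovered Dose ART: abdominal tissue remainder incl GI tract reproductive organs spleen bladder and fat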
Type: in vivo, Swiss-Webster mice
Conditions: listed as 3,4,3-LI(1,2-HOPO); for % Recovered Dose Kidney / % Recovered Dose Liver / % Recovered Dose SKEL / % Recovered Dose SOFT / % Recovered Dose Total Feces / % Recovered Dose ART / % Recovered Dose Combined Body / % Recovered Dose Combined Excreta / % Recovered Dose Total Urine / % Recovered Dose GI Tract / % Recovered Dose Soft Tissue / % Recovered Dose Total Bone: male animals
Procedure: The objective of this study was to characterize the efficacy of 3,4,3-L1(1,2-HOPO) at enhancing elimination from an internal plutonium burden in female and male Swiss-Webster mice administered a soluble citrate complex of ^238Pu and treated multiple times, starting at 24 hours after the exposure. Efficacy was evaluated by comparing the tissue contents, urinary and fecal excretions of ^238Pu in treated animals versus untreated animals.
The medical countermeasure 3,4,3-L1(1,2-HOPO) was administered parenterally (ip) or orally (po) via consecutive injections or gavages (six daily or twelve twice daily) starting at 24 hours post contamination at the following four selected doses: 30 μmol/kg ip, 150 μmol/kg po, 300 μmol/kg po, and 600 μmol/kg po (equivalent to respective approximate human doses range of […], using the accepted conversion system of mouse doses into human equivalent doses—HED—based on body surface area). Oral doses also included the permeability enhancer selected during formulation development work.
• Challenge isotope: ^238Pu • Challenge dose: 25 nCi (i.e., approximately 0.8 μCi/kg) • Route of contamination: Intravenous (iv) tail-vein • Route of treatment: Intraperitoneal Injection (ip) or Oral (po) • Frequency of treatment: Multiple (once- or twice-daily for 6 days) doses, starting 24 hr postcontamination • Treatment dose calculation: Dose calculations (mg/kg or μmol/kg) for the decorporation agent were based on the individual body weight measured after contamination. • Study Duration: 11 days, in-life
c. […] Test article and control dose formulations were prepared within 1 day of dose administration, by weighing out the appropriate amount of test article, dispersing in vehicle. For ip solutions, the test article was used alone, while for oral suspensions, a mixture of test article and excipient (90:10, w:w) was used. The pH was adjusted to 7.0-7.4 for ip administration and 5.0-5.5 for oral administration with sterile NaOH. Dose formulations were prepared at room temperature and filter-sterilized. • Storage: 2-8° C.; refrigerated; protected from light. • Characterization: The concentration of each test article formulation was verified by high-performance liquid chromatography-mass spectrometry. • Test Article Handling: Test, reference, and control article formulations were handled with the use of eye protection, gloves, and a protective laboratory coat. • Correct Dose Assurance: The test article was weighed with calibrated balances. The administration of each dose formulation was properly documented, and the amount administered to each animal recorded.
e. Experimental Procedures (In-Life Evaluations and Euthanasia) • Contamination: Single administration by intravenous (iv) tail-vein injection (0.2 mL injection volume) under isoflurane anesthesia. Three standard 0.2 mL injections were performed into polyethylene bottles and pre-loaded with aliquots of concentrated nitric acid on each injection day. Six female and six male mice were culled for necropsy 1 hr post-contamination and were used as standards. A11 standards were processed and counted together with the final samples to allow verification of the contamination dose. • Dose Administration: Single administration by intraperitoneal injection (ip) or oral gavage (po) under isoflurane anesthesia. • Mortality/Morbidity: Assessed at least once daily. • Clinical Observations: Recorded once daily (4 hr post-dose on day of treatment), or more often as clinical signs warranted. […]

[1] = Day-11 necropsy, animal group I
[2] = Day-11 necropsy, animal group L
[3] = Day-11 necropsy, animal group M
[4] = male arm table, Day 11 necropsy, animal group I
[5] = male arm table, Day 11 necropsy, animal group L
[6] = male arm table, Day 11 necropsy, animal group M

O=C(NCCCN(CCCCN(CCCNC(=O)c1cccc(=O)n1O)C(=O)c1cccc(=O)n1O)C(=O)c1cccc(=O)n1O)c1cccc(=O)n1O [3,4,3-L1(1,2-HOPO)]
% Recovered Dose Kidney (Day-7 necropsy, animal group C): 0.22% and 0.15% and 0.21% and 0.17% | % Recovered Dose Liver (Day-7 necropsy, animal group C): 15.72% and 12.80% and 16.24% and 16.85% | % Recovered Dose SKEL (Day-7 necropsy, animal group C): 24.75% and 21.49% and 23.68% and 17.13% | % Recovered Dose SOFT (Day-7 necropsy, animal group C): 2.28% and 2.12% and 3.24% and 2.82% | % Recovered Dose Total Feces (Day-7 necropsy, animal group C): 34.40% and 32.67% and 50.44% and 35.35% | % Recovered Dose ART (Day-7 necropsy, animal group E): 1.02% and 1.34% and 1.21% and 1.33% | % Recovered Dose Combined Body (Day-7 necropsy, animal group E): 30.49% and 40.14% and 34.97% and 37.95% | % Recovered Dose Combined Excreta (Day-7 necropsy, animal group E): 69.51% and 59.86% and 65.03% and 62.05% | % Recovered Dose Kidney (Day-7 necropsy, animal group E): 0.14% and 0.21% and 0.13% and 0.20% | % Recovered Dose Liver (Day-7 necropsy, animal group E): 9.72% and 15.67% and 11.76% and 13.58% | % Recovered Dose SKEL (Day-7 necropsy, animal group E): 17.72% and 20.95% and 20.71% and 20.84% | % Recovered Dose SOFT (Day-7 necropsy, animal group E): 1.89% and 1.96% and 1.16% and 2.00% | % Recovered Dose Total Feces (Day-7 necropsy, animal group E): 40.90% and 40.04% and 39.60% and 39.91% | % Recovered Dose Total Urine (Day-7 necropsy, animal group E): 28.61% and 19.82% and 25.43% and 22.13% | % Recovered Dose ART (Day-7 necropsy, animal group F): 1.03% and 1.92% and 2.25% and 1.33% | % Recovered Dose Combined Body (Day-7 necropsy, animal group F): 30.37% and 39.36% and 36.59% and 31.04% | % Recovered Dose Combined Excreta (Day-7 necropsy, animal group F): 69.63% and 60.64% and 63.41% and 68.96% | % Recovered Dose Kidney (Day-7 necropsy, animal group F): 0.17% and 0.21% and 0.42% | % Recovered Dose Liver (Day-7 necropsy, animal group F): 7.14% and 17.14% and 15.20% and 10.27% | % Recovered Dose SKEL (Day-7 necropsy, animal group F): 20.00% and 18.02% and 16.63% and 16.58% | % Recovered Dose SOFT (Day-7 necropsy, animal group F): 2.03% and 2.08% and 2.10% and 2.66% | % Recovered Dose Total Feces (Day-7 necropsy, animal group F): 42.75% and 36.05% and 44.44% and 38.86% | % Recovered Dose Total Urine (Day-7 necropsy, animal group F): 26.88% and 24.59% and 18.97% and 30.09% | % Recovered Dose Combined Body [1]: 15.90% and 20.53% and 19.46% and 22.16% and 16.51% and 22.02% and 21.03% and 23.25% | % Recovered Dose Combined Excreta [1]: 84.10% and 79.47% and 80.54% and 77.84% and 83.49% and 77.98% and 78.97% and 76.75% | % Recovered Dose GI Tract [1]: 0.43% and 0.47% and 0.44% and 0.49% and 0.64% and 0.58% and 0.71% | % Recovered Dose Kidney [1]: 0.08% and 0.11% and 0.10% and 0.14% and 0.13% and 0.16% | % Recovered Dose Liver [1]: 2.60% and 1.91% and 2.22% and 2.29% and 3.02% and 2.09% and 2.92% and 2.34% | % Recovered Dose Soft Tissue [1]: 1.04% and 0.98% and 0.83% and 1.42% and 1.37% and 1.22% and 1.20% | % Recovered Dose Total Bone [1]: 11.74% and 17.07% and 15.87% and 17.81% and 11.38% and 18.21% and 16.06% and 19.05% | % Recovered Dose Total Feces [1]: 54.04% and 60.47% and 51.78% and 38.48% and 49.18% and 43.78% and 44.59% and 43.58% | % Recovered Dose Combined Body [2]: 38.48% and 43.87% and 28.88% and 28.44% and 32.53% and 32.57% and 26.76% and 36.08% | % Recovered Dose Combined Excreta [2]: 61.52% and 56.13% and 71.12% and 71.56% and 64.47% and 67.43% and 73.24% and 63.92% | % Recovered Dose GI Tract [2]: 0.99% and 1.04% and 1.13% and 1.03% and 1.21% and 0.97% and 0.90% and 0.93% | % Recovered Dose Kidney [2]: 0.10% and 0.15% and 0.19% and 0.14% | % Recovered Dose Soft Tissue [2]: 2.91% and 2.09% and 2.06% and 2.29% and 2.57% and 2.02% and 1.97% and 1.69% | % Recovered Dose Total Bone [2]: 25.77% and 24.60% and 16.37% and 19.43% and 22.08% and 18.56% and 15.85% and 25.23% | % Recovered Dose Total Feces [2]: 41.70% and 35.40% and 43.87% and 46.74% and 38.04% and 37.30% and 46.07% and 33.53% | % Recovered Dose Total Urine [2]: 19.82% and 20.73% and 27.24% and 24.82% and 26.43% and 30.12% and 27.17% and 30.39% | % Recovered Dose Combined Body [3]: 20.04% and 21.39% and 28.64% and 34.45% and 33.00% and 30.60% and 25.58% and 27.62% | % Recovered Dose Combined Excreta [3]: 79.96% and 78.61% and 71.36% and 65.55% and 67.00% and 69.40% and 74.42% and 72.38% | % Recovered Dose GI Tract [3]: 0.61% and 0.50% and 0.89% and 0.48% and 0.99% and 1.00% and 0.73% and 0.76% | % Recovered Dose Kidney [3]: 0.08% and 0.17% and 0.28% and 0.16% and 0.25% and 0.24% and 0.20% and 0.13% | % Recovered Dose Liver [3]: 3.86% and 3.49% and 8.37% and 6.17% and 12.45% and 9.96% and 3.83% and 6.08% | % Recovered Dose Soft Tissue [3]: 1.50% and 1.55% and 1.52% and 2.24% and 2.53% and 2.16% and 2.01% and 1.95% | % Recovered Dose Total Bone [3]: 13.99% and 15.68% and 17.58% and 25.41% and 16.78% and 17.24% and 18.80% and 18.71% | % Recovered Dose Total Feces [3]: 53.86% and 46.68% and 46.45% and 35.88% and 40.81% and 59.45% and 36.72% and 39.43% | % Recovered Dose Urine per Day, Day 2 [4]: 3.96% and 5.51% and 4.41% and 4.63% and 4.05% and 5.30% and 3.86% and 5.05% | % Recovered Dose Urine per Day, Day 3 [4]: 1.65% and 1.23% and 3.48% and 2.00% and 1.41% and 1.46% and 1.93% | % Recovered Dose Urine per Day, Day 4 [4]: 0.77% and 0.85% and 0.98% and 1.08% and 0.65% and 0.92% and 0.89% and 0.93% | % Recovered Dose Urine per Day, Day 5 [4]: 0.94% and 0.87% and 0.59% and 0.63% and 0.79% and 0.76% and 0.28% and 1.05% | % Recovered Dose Urine per Day, Day 6 [4]: 0.65% and 0.41% and 0.44% and 0.32% and 0.35% and 0.48% and 0.51% and 0.55% | % Recovered Dose Urine per Day, Day 7 [4]: 0.87% and 1.16% and 0.64% and 0.59% and 0.75% and 0.99% and 1.27% | % Recovered Dose Urine per Day, Day 8 [4]: 0.32% and 0.70% and 0.71% and 0.52% and 0.77% and 0.79% and 0.51% | % Recovered Dose Urine per Day, Day 9 [4]: 0.20% and 0.51% and 0.73% and 0.48% and 0.39% and 0.60% and 0.63% | % Recovered Dose Urine per Day, Day 10 [4]: 0.58% and 0.74% and 0.92% and 0.42% and 0.40% and 0.38% and 0.41% | % Recovered Dose Urine per Day, Day 11 [4]: 0.39% and 0.44% and 0.55% and 0.31% and 0.43% and 0.00% and 0.71% | % Recovered Dose Urine per Day, Day 1 [5]: 12.59% and 16.03% and 21.48% and 17.40% and 21.11% and 22.45% and 21.35% and 20.51% | % Recovered Dose Urine per Day, Day 2 [5]: 2.90% and 1.60% and 1.70% and 2.41% and 1.15% and 2.95% and 2.14% and 3.00% | % Recovered Dose Urine per Day, Day 3 [5]: 1.04% and 0.84% and 1.21% and 0.62% and 1.08% and 1.06% and 0.54% and 1.49% | % Recovered Dose Urine per Day, Day 4 [5]: 0.50% and 0.38% and 0.59% and 0.77% and 0.45% and 0.81% and 0.67% and 1.28% | % Recovered Dose Urine per Day, Day 5 [5]: 0.64% and 0.28% and 0.60% and 0.52% and 0.67% and 0.50% and 0.69% | % Recovered Dose Urine per Day, Day 6 [5]: 0.60% and 0.06% and 0.37% and 0.49% and 0.33% and 0.48% and 0.43% | % Recovered Dose Urine per Day, Day 7 [5]: 0.61% and 0.22% and 0.72% and 1.23% and 0.46% and 0.44% and 0.51% and 0.75% | % Recovered Dose Urine per Day, Day 8 [5]: 0.30% and 0.16% and 0.05% and 0.55% and 0.60% and 0.62% | % Recovered Dose Urine per Day, Day 9 [5]: 0.21% and 0.30% and 0.20% and 0.22% and 0.55% and 0.27% and 0.25% and 0.67% | % Recovered Dose Urine per Day, Day 10 [5]: 0.24% and 0.45% and 0.12% and 0.20% and 0.21% and 0.30% and 0.34% and 0.63% | % Recovered Dose Urine per Day, Day 11 [5]: 0.20% and 0.41% and 0.40% and 0.14% and 0.18% and 0.34% and 0.31% | % Recovered Dose Urine per Day, Day 2 [6]: 2.27% and 2.99% and 2.82% and 2.73% and 2.07% and 4.97% and 3.05% | % Recovered Dose Urine per Day, Day 3 [6]: 0.81% and 1.49% and 1.40% and 1.64% and 1.14% and 1.43% and 1.07% and 1.00% | % Recovered Dose Urine per Day, Day 4 [6]: 0.47% and 0.64% and 0.77% and 0.68% and 0.62% and 0.31% and 0.58% and 0.72%
